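Dose response: 5 concentrations. Exposure: 48 h. Format: 96-well plates. Endpoint: linear interpolation; highest concentration if not reached. Abbreviation: GI50, concentration required for 50% inhibition of growth. TGI: concentration producing complete growth inhibition.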
Assays:
Experiment in all cases: inhibition of tumour cell growth, NCI panel, 48 h
[1] = tested on: ACHN renal
[2] = tested on: COLO 205 colon
[3] = tested on: HCT-116 colon
[4] = tested on: IGROV1 ovarian
[5] = tested on: OVCAR-5 ovarian
[6] = tested on: RPMI-8226 leukemia
[7] = tested on: SK-OV-3 ovarian
[8] = tested on: SNB-75 CNS
[9] = tested on: DU-145 prostate
[10] = tested on: NCI/ADR-RES ovarian

Compound	TGI [1] [µM]	TGI [2] [µM]	TGI [3] [µM]	TGI [4] [µM]	TGI [5] [µM]	TGI [6] [µM]	TGI [7] [µM]	TGI [8] [µM]	GI50 [1] [µM]	GI50 [2] [µM]	GI50 [9] [µM]	TGI [9] [µM]	GI50 [4] [µM]	GI50 [10] [µM]	TGI [10] [µM]	GI50 [5] [µM]	GI50 [6] [µM]	GI50 [7] [µM]	GI50 [8] [µM]	GI50 [3] [µM]
CS/C(=C(\S)c1ccccc1)c1ccccc1	> 100	> 100	> 100	> 100	> 100	> 100	> 100	> 100	–	–	–	–	–	–	–	–	–	–	–	–
O=C1c2cc3c(cc2-c2c1c1cc(Cl)c(Cl)cc1c(=O)n2C[C@H](O)CO)OCO3	0.0128	0.291	–	2.08	0.955	0.188	0.0536	0.0786	< 0.01	< 0.01	< 0.01	1.8	0.0219	< 0.01	0.0184	0.0184	< 0.01	< 0.01	< 0.01	–
O=[N+]([O-])c1cccc2ccc(N/N=C/c3ccccc3O)nc12	> 100	> 19.8	> 100	–	> 100	3.12	> 100	> 70.6	> 100	1.91	> 23.8	> 100	–	> 100	> 100	> 100	0.027	> 100	> 37.8	2.19
C=COC(=O)N[C@H]1CCc2cc(OC)c(OC)c(OC)c2-c2ccc(SC)c(=O)cc21	64.9	< 0.01	0.74	> 100	> 75	52.1	3.5	14.4	–	–	–	< 0.01	–	–	–	–	–	–	–	–
O=c1[nH]c2ccc(O)cc2o1	> 100	> 100	> 100	> 100	> 100	–	> 100	> 100	–	–	–	> 100	–	–	> 100	–	–	–	–	–
CC(C)OC(=O)[C@H](C)NP(=O)(OC[C@H]1O[C@@H](n2ccc(=O)[nH]c2=O)[C@](C)(F)[C@@H]1O)Oc1ccccc1 (some centres undefined)	> 100	–	> 100	> 100	> 100	–	> 100	> 100	> 100	–	> 100	> 100	> 100	> 100	> 100	> 100	–	> 100	> 100	> 100
COC(=O)c1cc2c(s1)-c1nccc3c1c(nc1ccccc13)C2=O	> 100	> 100	> 100	> 100	> 100	–	> 100	–	> 100	50.2	> 100	> 100	28.8	> 100	> 100	> 100	–	> 100	–	> 100
O=C(Nc1cc(C(F)(F)F)ccc1Cl)c1cccc(NC2=C(Cl)C(=O)N(Cc3ccccc3)C2=O)c1	> 100	> 100	> 100	> 100	–	50	> 100	> 100	99.9	41.5	54.4	> 100	2.81	–	–	–	2.92	> 100	> 100	10.3
CC(=O)N1CCC(=O)/C(=C/c2ccccc2)C1	56.8	> 100	32.2	46.4	> 100	> 100	> 100	> 100	–	–	–	–	–	–	–	–	–	–	–	–
C=CCN1CCC23c4c5ccc(O)c4OC2C(=NN=C2CCC4(O)C6Cc7ccc(O)c8c7C4(CCN6CC=C)C2O8)CCC3(O)C1C5 (centres undefined)	41.2	42.1	–	> 100	> 100	> 100	> 100	34.2	–	–	–	–	–	–	–	–	–	–	–	–
COC(=O)c1ccc(-c2c(C#N)[n+](=O)c3cc(Cl)c(Cl)cc3n2[O-])cc1	35.2	52.1	> 100	> 100	39.4	83.4	–	39.8	17.2	22	20.2	40.9	3.39	23.2	75.6	19.2	29.8	–	20.2	13.3
CC(C)=CCc1cc2c(cc1O)OC[C@H]1c3cc4c(cc3O[C@@H]21)OCO4	> 100	> 100	32.2	> 100	> 100	–	> 100	> 100	–	–	–	> 100	–	–	76.1	–	–	–	–	–
CN(C)CCNC(=O)c1cccc2c(Nc3ccc(S(=O)(=O)N=C(N)N)cc3)c3ccccc3nc12	61.1	32.2	> 100	45	90.4	–	–	43.8	–	–	–	–	–	–	–	–	–	–	–	–
O=[P@@]1(c2ccccc2)O[C@H](COCc2ccccc2)[C@@H](OCc2ccccc2)[C@H](OCc2ccccc2)[C@H]1NCc1ccccc1	> 100	3.71	> 100	–	> 100	> 100	> 100	47.5	3.38	1.93	4.97	> 100	–	3.16	> 100	3.51	2.97	4.48	2.08	2.74
CCOC(=O)/C=C/c1ccc(C#Cc2ccccc2)cc1	> 100	> 100	> 100	–	> 100	> 100	> 100	97.1	> 100	> 100	–	–	–	> 100	> 100	> 100	54.5	> 100	31.8	> 100
O=C(/C=C/C=C/c1ccccc1)c1ccccc1	–	31.5	31.4	31.2	28.8	72.5	70.4	41.9	–	–	–	40.1	–	–	27.1	–	–	–	–	–
COC(=O)c1s/c(=N\C(=S)N(C)C)n(-c2ccc(Cl)cc2)c1C(=O)OC	> 100	> 100	> 100	> 10	> 100	> 100	> 10	> 10	–	–	–	–	–	–	–	–	–	–	–	–

Reference: PubChem BioAssay (NCI)
